Common to all, as to assay: NCI tumour cell line growth inhibition, 48 h
Assay [1] concerns UO-31 renal.
For assay [2], the system named is MALME-3M melanoma.
The test system of assay [3] is EKVX NSCLC.
Assay [4] has as its system RPMI-8226 leukemia.
Assay [5] has as its system MDA-N.
The test system of assay [6] is M14 melanoma.
Assay [7] has as its system SK-MEL-2 melanoma.
The subject of assay [8] is DU-145 prostate.
In assay [9] the test system is NCI-H23 lung.

Each structure is given as a SMILES string.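 A five-concentration, 48-hour dose response in 96-well plates underlies each endpoint, interpolated linearly between surrounding concentrations. Definition used: TGI = concentration required for complete inhibition of growth.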

As to `O=C(O)c1ccc(/C=N\N(CCO)C2=NCCN2)cc1`, the TGI in assay [1], in assay [2], in [3], in assay [4], in assay [5] and in [6] was greater than 100 µM each time. Moreover, the TGI in assay [7], in assay [8] and in assay [9] was greater than 100 µM in each case.

On to `COc1ccc(CCNC(=S)/N=C\C2=C(O)c3ccccc3C2=O)cc1OC`, for which the TGI in [1], in assay [2], in assay [3], in [4], in assay [5] and in assay [6] was greater than 100 µM each time. Moreover, the TGI in [7], in assay [8] and in assay [9] was greater than 100 µM throughout.

For `CC1(C)OCC(C2OC(=O)C(OCc3ccccc3)=C2OCc2ccccc2)O1` (stereo unspecified), the TGI was greater than 100 µM in assay [1]; 93.9 µM in assay [2]; greater than 100 µM in [3]; 76.5 µM in [4]; greater than 100 µM in assay [5]; greater than 100 µM in assay [6]. The TGI in assay [7] is 61 µM; in [8], greater than 100 µM; in assay [9], 92.5 µM.

In the case of `O=C(/C=C/c1ccsc1)c1ccc(Cl)s1`, the TGI in assay [1] is greater than 100 µM; in [2], greater than 100 µM; in assay [3], greater than 100 µM; in assay [4], 45.5 µM; in assay [5], greater than 100 µM; in [6], greater than 100 µM. Also, the TGI in [7], in [8] and in assay [9] was greater than 100 µM throughout.

For the compound `CS(=O)(=O)OC1CCN(C2(c3cccc(O)c3)CCCCC2)CC1`, the TGI is greater than 100 µM in assay [1]; greater than 100 µM in assay [2]; greater than 100 µM in assay [3]; 49 µM in assay [4]; greater than 100 µM in assay [5]; greater than 100 µM in assay [6]. Besides, the TGI in [7], in assay [8] and in assay [9] was greater than 100 µM each time.

As to `CCC(C)N1CN(c2ccccc2)C2(CCN(CCCC(=O)c3ccc(F)cc3)CC2)C1=O` (stereo unspecified), the TGI in [1] turned out to be 15.6 µM; in assay [2], 27.8 µM; in [3] it was 36.4 µM; in assay [4], 31.5 µM; in assay [5] it was 25.5 µM; in assay [6], 27.4 µM. The TGI in assay [7] was 28.7 µM; in assay [8] it was 13.4 µM; in assay [9], 14.1 µM.

On to `O=S(=O)(Nc1nc(-c2cc(O)c(O)c(O)c2)cs1)c1ccc(Cl)cc1Cl`, for which the TGI in [1] is 46.5 µM; in assay [2] it was greater than 100 µM; in [3] it was 33.5 µM; in assay [4], 40.8 µM; in assay [5], 73.9 µM; in assay [6] it was 50.6 µM. Further, the TGI in assay [7] was greater than 100 µM; in [8] it was 53.8 µM; in [9] it was 74.1 µM.

For `CCCCCCCCCCOC1C(C(C)OCCCN(C)C)OC2OC3(CCCCC3)OC21` (stereo unspecified), the TGI in assay [1] stood at 31.7 µM; in assay [2] it was 29.5 µM; in [3], 33 µM; in [4] it was 17.4 µM; in [5], 21.8 µM; in [6], 10.2 µM. The TGI in assay [7] came to 30.4 µM; in assay [8], 31.2 µM; in assay [9], 23.8 µM.

`O=C1CSC(c2c(O)ccc3ccccc23)N1n1c(=S)[nH]nc(/C=C/c2c(O)ccc3ccccc23)c1=O` (stereo unspecified): the TGI in assay [1] is 15.1 µM; in [2] it was 16.8 µM; in assay [3] it was 51.3 µM; in assay [4], 17.4 µM; in assay [5], greater than 100 µM; in assay [6] it was 3.32 µM. For the same compound, the TGI in assay [7] came to 15.1 µM; in assay [8], 15.3 µM; in [9] it was 23 µM.

Take `COc1ccc2c(c1)-c1c(c3ccccc3n1CCN1CCOCC1)CC2`: the TGI in [1] is 96.8 µM; in assay [2], 46.2 µM; in assay [3], 63.8 µM; in assay [4], 97 µM; in [5], greater than 100 µM; in [6], greater than 100 µM. Moreover, the TGI in [7] was 28.9 µM; in [8], greater than 100 µM; in [9] it was 65.6 µM.

With `CC(=N\N=C\c1ccccn1)/C(C)=N/N=C/c1ccccn1`, the TGI in [1], in assay [2], in assay [3], in assay [4], in assay [5] and in [6] was greater than 100 µM throughout. For the same compound, the TGI in [7], in [8] and in assay [9] was greater than 100 µM throughout.

As to `Cc1cc2nc(NS(=O)(=O)c3cc(C)c(Cl)cc3S)[nH]c2cc1C`, the TGI in [1], in assay [2], in [3], in assay [4], in assay [5] and in assay [6] was greater than 100 µM throughout. In addition, the TGI in assay [7], in assay [8] and in assay [9] was greater than 100 µM throughout.

In the case of `COc1cc(C2c3cc4c(cc3OC(N3CCOCC3)C2C)OCO4)cc(OC)c1OC` (stereo unspecified), the TGI was 55.2 µM in [1]; greater than 100 µM in [2]; greater than 100 µM in assay [3]; greater than 23.7 µM in assay [4]; 0.439 µM in [5]; 44.1 µM in assay [6]. Further, the TGI is 28.2 µM in assay [7], greater than 49.6 µM in assay [8] and 18.2 µM in assay [9].

As to `O=C(O)[C@H]1NC[C@@H]2ON=C(Br)[C@@H]21`, the TGI in [1], in assay [2], in assay [3], in [4], in assay [5] and in [6] was greater than 100 µM throughout. Further, the TGI in [7], in assay [8] and in [9] was greater than 100 µM each time.

These data come from PubChem BioAssay (NCI).
